Laboratory results taken from ChEMBL document CHEMBL3885881, “DrugMatrix”.

Organism: Rattus norvegicus
Assay: DrugMatrix - Regimen: Daily Repeat
Format: toxicity, organism-based, Sprague-Dawley
Set-up: regimen Daily Repeat, gender Male, age 6-8 weeks
Conditions: in vivo, iv, vehicle 100 % SALINE; for ABSOLUTE BASOPHIL / ABSOLUTE EOSINOPHIL / ABSOLUTE LYMPHOCYTE / ABSOLUTE MONOCYTE / ABSOLUTE SEGMENTED NEUTROPHIL / BASOPHIL / EOSINOPHIL / ERYTHROCYTE COUNT / HEMATOCRIT / HEMOGLOBIN / LEUKOCYTE COUNT / LYMPHOCYTE / MEAN CORPUSCULAR HEMOGLOBIN / MEAN CORPUSCULAR HEMOGLOBIN CONCENTRATION / MEAN CORPUSCULAR VOLUME / MONOCYTE / NEUTROPHIL / NUCLEATED RED BLOOD CELLS / PLATELET COUNT: tissue Blood; for ALANINE AMINOTRANSFERASE / ALBUMIN / ALKALINE PHOSPHATASE / ASPARTATE AMINOTRANSFERASE / BLOOD UREA NITROGEN / CARBON DIOXIDE / CHLORIDE / CHOLESTEROL / CREATINE PHOSPHOKINASE / CREATININE / GLUCOSE / LACTATE DEHYDROGENASE / LIPASE / PHOSPHORUS / POTASSIUM / SODIUM / TOTAL BILIRUBIN / TOTAL PROTEIN / URIC ACID: tissue Plasma
[1] = 0.5 mg/kg, 72 h, dose level Low, time 3 day
[2] = 0.5 mg/kg, 120 h, dose level Low, time 5 day
[3] = […], 72 h, dose 2.5 mg/Kg, dose level High, time 3 day
[4] = […], 120 h, dose 2.5 mg/Kg, dose level High, time 5 day

SMILES: CC[N+](CC)(CC)CCOc1cccc(OCC[N+](CC)(CC)CC)c1OCC[N+](CC)(CC)CC.[I-].[I-].[I-] [GALLAMINE TRIETHIODIDE]
- ABSOLUTE BASOPHIL [1]: 0 CELLS/uL
- ABSOLUTE EOSINOPHIL [1]: 0 CELLS/uL
- ABSOLUTE LYMPHOCYTE [1]: 12252.67 CELLS/uL
- ABSOLUTE MONOCYTE [1]: 379 CELLS/uL
- ABSOLUTE SEGMENTED NEUTROPHIL [1]: 1435 CELLS/uL
- BASOPHIL [1]: 0%
- EOSINOPHIL [1]: 0%
- ERYTHROCYTE COUNT [1]: 5.22 x10E6/uL
- HEMATOCRIT [1]: 33.63%
- HEMOGLOBIN [1]: 13.53 G/DL
- LEUKOCYTE COUNT [1]: 14.07 x10E3/uL
- LYMPHOCYTE [1]: 87%
- MEAN CORPUSCULAR HEMOGLOBIN [1]: 25.93 pg
- MEAN CORPUSCULAR HEMOGLOBIN CONCENTRATION [1]: 40.3 G/DL
- MEAN CORPUSCULAR VOLUME [1]: 64.4 fL
- MONOCYTE [1]: 2.67%
- NEUTROPHIL [1]: 10.33%
- NUCLEATED RED BLOOD CELLS [1]: 0.33 /100WBC
- PLATELET COUNT [1]: 1175 x10E3/uL
- ALANINE AMINOTRANSFERASE [1]: 52 u/L
- ALBUMIN [1]: 4.07 G/DL
- ALKALINE PHOSPHATASE [1]: 372 u/L
- ASPARTATE AMINOTRANSFERASE [1]: 79.33 u/L
- BLOOD UREA NITROGEN [1]: 15.33 mg/dL
- CARBON DIOXIDE [1]: 23.33 mmol/L
- CHLORIDE [1]: 104.33 MEQ/L
- CHOLESTEROL [1]: 71.33 mg/dL
- CREATINE PHOSPHOKINASE [1]: 361.33 u/L
- CREATININE [1]: 0.14 mg/dL
- GLUCOSE [1]: 161.67 mg/dL
- LACTATE DEHYDROGENASE [1]: 163 u/L
- LIPASE [1]: 9 u/L
- PHOSPHORUS [1]: 13.97 mg/dL
- POTASSIUM [1]: 6.65 MEQ/L
- SODIUM [1]: 146.57 MEQ/L
- TOTAL BILIRUBIN [1]: 0.2 mg/dL
- TOTAL PROTEIN [1]: 5.67 G/DL
- URIC ACID [1]: 1.4 mg/dL
- ABSOLUTE BASOPHIL [2]: 0 CELLS/uL
- ABSOLUTE EOSINOPHIL [2]: 43 CELLS/uL
- ABSOLUTE LYMPHOCYTE [2]: 13831.33 CELLS/uL
- ABSOLUTE MONOCYTE [2]: 112.67 CELLS/uL
- ABSOLUTE SEGMENTED NEUTROPHIL [2]: 1346.33 CELLS/uL
- BASOPHIL [2]: 0%
- EOSINOPHIL [2]: 0.33%
- ERYTHROCYTE COUNT [2]: 5.96 x10E6/uL
- HEMATOCRIT [2]: 37.33%
- HEMOGLOBIN [2]: 14.57 G/DL
- LEUKOCYTE COUNT [2]: 15.33 x10E3/uL
- LYMPHOCYTE [2]: 90.33%
- MEAN CORPUSCULAR HEMOGLOBIN [2]: 24.5 pg
- MEAN CORPUSCULAR HEMOGLOBIN CONCENTRATION [2]: 39.03 G/DL
- MEAN CORPUSCULAR VOLUME [2]: 62.7 fL
- MONOCYTE [2]: 0.67%
- NEUTROPHIL [2]: 8.67%
- NUCLEATED RED BLOOD CELLS [2]: 0.33 /100WBC
- PLATELET COUNT [2]: 1517.33 x10E3/uL
- ALANINE AMINOTRANSFERASE [2]: 52.33 u/L
- ALBUMIN [2]: 4.17 G/DL
- ALKALINE PHOSPHATASE [2]: 369.67 u/L
- ASPARTATE AMINOTRANSFERASE [2]: 80.67 u/L
- BLOOD UREA NITROGEN [2]: 15.67 mg/dL
- CARBON DIOXIDE [2]: 22 mmol/L
- CHLORIDE [2]: 104 MEQ/L
- CHOLESTEROL [2]: 61.67 mg/dL
- CREATINE PHOSPHOKINASE [2]: 215 u/L
- CREATININE [2]: 0.26 mg/dL
- GLUCOSE [2]: 161 mg/dL
- LACTATE DEHYDROGENASE [2]: 282 u/L
- LIPASE [2]: 10 u/L
- PHOSPHORUS [2]: 14.53 mg/dL
- POTASSIUM [2]: 7.06 MEQ/L
- SODIUM [2]: 146.97 MEQ/L
- TOTAL BILIRUBIN [2]: 0.2 mg/dL
- TOTAL PROTEIN [2]: 5.93 G/DL
- URIC ACID [2]: 1.57 mg/dL
- ABSOLUTE BASOPHIL [3]: 0 CELLS/uL
- ABSOLUTE EOSINOPHIL [3]: 0 CELLS/uL
- ABSOLUTE LYMPHOCYTE [3]: 15571.67 CELLS/uL
- ABSOLUTE MONOCYTE [3]: 0 CELLS/uL
- ABSOLUTE SEGMENTED NEUTROPHIL [3]: 1428.33 CELLS/uL
- BASOPHIL [3]: 0%
- EOSINOPHIL [3]: 0%
- ERYTHROCYTE COUNT [3]: 5.32 x10E6/uL
- HEMATOCRIT [3]: 34.57%
- HEMOGLOBIN [3]: 13.83 G/DL
- LEUKOCYTE COUNT [3]: 17 x10E3/uL
- LYMPHOCYTE [3]: 91.67%
- MEAN CORPUSCULAR HEMOGLOBIN [3]: 25.97 pg
- MEAN CORPUSCULAR HEMOGLOBIN CONCENTRATION [3]: 40 G/DL
- MEAN CORPUSCULAR VOLUME [3]: 64.93 fL
- MONOCYTE [3]: 0%
- NEUTROPHIL [3]: 8.33%
- NUCLEATED RED BLOOD CELLS [3]: 1 /100WBC
- PLATELET COUNT [3]: 1293 x10E3/uL
- ALANINE AMINOTRANSFERASE [3]: 50 u/L
- ALBUMIN [3]: 4.23 G/DL
- ALKALINE PHOSPHATASE [3]: 314.67 u/L
- ASPARTATE AMINOTRANSFERASE [3]: 74 u/L
- BLOOD UREA NITROGEN [3]: 15.67 mg/dL
- CARBON DIOXIDE [3]: 22.33 mmol/L
- CHLORIDE [3]: 104.33 MEQ/L
- CHOLESTEROL [3]: 65.67 mg/dL
- CREATINE PHOSPHOKINASE [3]: 204 u/L
- CREATININE [3]: 0.27 mg/dL
- GLUCOSE [3]: 155 mg/dL
- LACTATE DEHYDROGENASE [3]: 158 u/L
- LIPASE [3]: 11.33 u/L
- PHOSPHORUS [3]: 12.97 mg/dL
- POTASSIUM [3]: 6.92 MEQ/L
- SODIUM [3]: 147.33 MEQ/L
- TOTAL BILIRUBIN [3]: 0.17 mg/dL
- TOTAL PROTEIN [3]: 6 G/DL
- URIC ACID [3]: 1.53 mg/dL
- ABSOLUTE BASOPHIL [4]: 0 CELLS/uL
- ABSOLUTE EOSINOPHIL [4]: 0 CELLS/uL
- ABSOLUTE LYMPHOCYTE [4]: 13793.67 CELLS/uL
- ABSOLUTE MONOCYTE [4]: 142.67 CELLS/uL
- ABSOLUTE SEGMENTED NEUTROPHIL [4]: 830.33 CELLS/uL
- BASOPHIL [4]: 0%
- EOSINOPHIL [4]: 0%
- ERYTHROCYTE COUNT [4]: 5.65 x10E6/uL
- HEMATOCRIT [4]: 35.97%
- HEMOGLOBIN [4]: 14.53 G/DL
- LEUKOCYTE COUNT [4]: 14.77 x10E3/uL
- LYMPHOCYTE [4]: 93.33%
- MEAN CORPUSCULAR HEMOGLOBIN [4]: 25.73 pg
- MEAN CORPUSCULAR HEMOGLOBIN CONCENTRATION [4]: 40.4 G/DL
- MEAN CORPUSCULAR VOLUME [4]: 63.63 fL
- MONOCYTE [4]: 1%
- NEUTROPHIL [4]: 5.67%
- NUCLEATED RED BLOOD CELLS [4]: 0.33 /100WBC
- PLATELET COUNT [4]: 1259.67 x10E3/uL
- ALANINE AMINOTRANSFERASE [4]: 54 u/L
- ALBUMIN [4]: 4.23 G/DL
- ALKALINE PHOSPHATASE [4]: 276.67 u/L
- ASPARTATE AMINOTRANSFERASE [4]: 81.33 u/L
- BLOOD UREA NITROGEN [4]: 15.67 mg/dL
- CARBON DIOXIDE [4]: 21.33 mmol/L
- CHLORIDE [4]: 105 MEQ/L
- CHOLESTEROL [4]: 56.33 mg/dL
- CREATINE PHOSPHOKINASE [4]: 248 u/L
- CREATININE [4]: 0.19 mg/dL
- GLUCOSE [4]: 147 mg/dL
- LACTATE DEHYDROGENASE [4]: 275.33 u/L
- LIPASE [4]: 10 u/L
- PHOSPHORUS [4]: 12.67 mg/dL
- POTASSIUM [4]: 6.58 MEQ/L
- SODIUM [4]: 146.13 MEQ/L
- TOTAL BILIRUBIN [4]: 0.2 mg/dL
- TOTAL PROTEIN [4]: 6.13 G/DL
- URIC ACID [4]: 1.47 mg/dL
